Assay results from patent publication US12304890B2, “R-type pyridyloxycarboxylic acid, salt and ester derivative thereof, and preparation method therefor, and herbicidal composition and application thereof” (Qingdao Kingagroot Chemical Compound Co., Ltd., priority 2018, dated 2025).

Tested on: Monocotyledonous and dicotyledonous weed seeds and main crop seeds
Test: Post-emergence test experiment, other weeds and crops (Table 4, 1000 g a.i./ha)
Assay type: in vivo
Settings: 3 weeks in greenhouse, fresh weight inhibition
Experimental: The above described growth inhibition rate is fresh weight inhibition rate.
Post-emergence test experiment: Monocotyledonous and dicotyledonous weed seeds and main crop seeds (i. e. wheat, corn, rice, soybean, cotton, oilseed, millet and sorghum.) were put into a plastic pot loaded with soil. Then covered with 0.5-2 cm soil, the seeds were allowed to grow in good greenhouse environment. The test plants were treated at 2-3 leaf stage 2 weeks after sowing. The test compounds of the invention were dissolved with acetone respectively, then added with tween-80, and using 1.5 liters per hectare of an emulsible concentrate of methyl oleate as a synergist, and diluted by certain amount of water to certain concentration. The solution was sprayed to the plants with a sprayer.

| SMILES | Activity level (growth inhibition rate), Abutilon theophrasti Medic. | Activity level (growth inhibition rate), Galium aparine | Activity level (growth inhibition rate), Monochoria Vaginalis |
| --- | --- | --- | --- |
| CCC(Oc1nc(F)c(Cl)c(N)c1Cl)C(=O)OC (stereo not drawn) [Compound 2-34] | 5 (Level 5: the growth inhibition rate is greater than 85%) | 5 (Level 5: the growth inhibition rate is greater than 85%) | 5 (Level 5: the growth inhibition rate is greater than 85%) |
| COC(=O)C(CC#N)Oc1nc(F)c(Cl)c(N)c1Cl (stereo not drawn) [Compound 2-60] | 5 (Level 5: the growth inhibition rate is greater than 85%) | 5 (Level 5: the growth inhibition rate is greater than 85%) | 5 (Level 5: the growth inhibition rate is greater than 85%) |
| C=CCNCC=C.CCC(Oc1nc(F)c(Cl)c(N)c1Cl)C(=O)S (stereo not drawn) [Compound 2-12] | 5 (Level 5: the growth inhibition rate is greater than 85%) | 5 (Level 5: the growth inhibition rate is greater than 85%) | 5 (Level 5: the growth inhibition rate is greater than 85%) |
| Nc1c(Cl)c(F)nc(O[C@@H](C(=O)[O-])c2ccccc2)c1Cl.[Na+] [Compound 2-1] | 5 (Level 5: the growth inhibition rate is greater than 85%) | 5 (Level 5: the growth inhibition rate is greater than 85%) | 5 (Level 5: the growth inhibition rate is greater than 85%) |
| COC(=O)C(CCCl)Oc1nc(F)c(Cl)c(N)c1Cl (stereo not drawn) [Compound 2-42] | 5 (Level 5: the growth inhibition rate is greater than 85%) | 5 (Level 5: the growth inhibition rate is greater than 85%) | 5 (Level 5: the growth inhibition rate is greater than 85%) |
| NCCNCCN.Nc1c(Cl)c(F)nc(OC(C(=O)O)c2ccccc2)c1Cl (stereo not drawn) [Compound 2-15] | 5 (Level 5: the growth inhibition rate is greater than 85%) | 5 (Level 5: the growth inhibition rate is greater than 85%) | 5 (Level 5: the growth inhibition rate is greater than 85%) |
| COC(=O)C(N)Oc1nc(F)c(Cl)c(N)c1Cl (stereo not drawn) [Compound 2-56] | 5 (Level 5: the growth inhibition rate is greater than 85%) | 5 (Level 5: the growth inhibition rate is greater than 85%) | 5 (Level 5: the growth inhibition rate is greater than 85%) |
| COC(=O)C(Br)Oc1nc(F)c(Cl)c(N)c1Cl (stereo not drawn) [Compound 2-52] | 5 (Level 5: the growth inhibition rate is greater than 85%) | 5 (Level 5: the growth inhibition rate is greater than 85%) | 5 (Level 5: the growth inhibition rate is greater than 85%) |
| COC(=O)C(F)Oc1nc(F)c(Cl)c(N)c1Cl (stereo not drawn) [Compound 2-51] | 5 (Level 5: the growth inhibition rate is greater than 85%) | 5 (Level 5: the growth inhibition rate is greater than 85%) | 5 (Level 5: the growth inhibition rate is greater than 85%) |
| CCC(Oc1nc(F)c(Cl)c(N)c1Cl)C(=O)S.NCCCN1CCOCC1 (stereo not drawn) [Compound 2-25] | 5 (Level 5: the growth inhibition rate is greater than 85%) | 5 (Level 5: the growth inhibition rate is greater than 85%) | 5 (Level 5: the growth inhibition rate is greater than 85%) |
| COC(=O)C(Oc1nc(F)c(Cl)c(N)c1Cl)C(C)C (stereo not drawn) [Compound 2-35] | 5 (Level 5: the growth inhibition rate is greater than 85%) | 5 (Level 5: the growth inhibition rate is greater than 85%) | 5 (Level 5: the growth inhibition rate is greater than 85%) |
| COC(=O)C(Oc1nc(F)c(Cl)c(N)c1Cl)C1CC1 (stereo not drawn) [Compound 2-38] | 5 (Level 5: the growth inhibition rate is greater than 85%) | 5 (Level 5: the growth inhibition rate is greater than 85%) | 5 (Level 5: the growth inhibition rate is greater than 85%) |
| NC1CCCCCCCCCCC1 [Compound 2-13, cyclododecylamine] | 5 (Level 5: the growth inhibition rate is greater than 85%) | 5 (Level 5: the growth inhibition rate is greater than 85%) | 5 (Level 5: the growth inhibition rate is greater than 85%) |
| COC(=O)[C@@H](Oc1nc(F)c(Cl)c(N)c1Cl)c1nc(Cl)cs1 [Compound 2-67] | 5 (Level 5: the growth inhibition rate is greater than 85%) | 5 (Level 5: the growth inhibition rate is greater than 85%) | 5 (Level 5: the growth inhibition rate is greater than 85%) |
| COC(=O)[C@H](Oc1nc(F)c(Cl)c(N)c1Cl)c1cccc(Cl)c1 [Compound 2-64] | 5 (Level 5: the growth inhibition rate is greater than 85%) | 5 (Level 5: the growth inhibition rate is greater than 85%) | 5 (Level 5: the growth inhibition rate is greater than 85%) |
| COC(=O)C(CC(F)(F)F)Oc1nc(F)c(Cl)c(N)c1Cl (stereo not drawn) [Compound 2-40] | 5 (Level 5: the growth inhibition rate is greater than 85%) | 5 (Level 5: the growth inhibition rate is greater than 85%) | 5 (Level 5: the growth inhibition rate is greater than 85%) |
| COC(=O)C(CN(C)C)Oc1nc(F)c(Cl)c(N)c1Cl (stereo not drawn) [Compound 2-59] | 5 (Level 5: the growth inhibition rate is greater than 85%) | 5 (Level 5: the growth inhibition rate is greater than 85%) | 5 (Level 5: the growth inhibition rate is greater than 85%) |
| COC(=O)C(Cl)Oc1nc(F)c(Cl)c(N)c1Cl (stereo not drawn) [Compound 2-53] | 5 (Level 5: the growth inhibition rate is greater than 85%) | 5 (Level 5: the growth inhibition rate is greater than 85%) | 5 (Level 5: the growth inhibition rate is greater than 85%) |
| COC(=O)C(Oc1nc(F)c(Cl)c(N)c1Cl)SC (stereo not drawn) [Compound 2-57] | 5 (Level 5: the growth inhibition rate is greater than 85%) | 5 (Level 5: the growth inhibition rate is greater than 85%) | 5 (Level 5: the growth inhibition rate is greater than 85%) |
| COC(=O)[C@@H](Oc1nc(F)c(Cl)c(N)c1Cl)c1cccs1 [Compound 2-65] | 5 (Level 5: the growth inhibition rate is greater than 85%) | 5 (Level 5: the growth inhibition rate is greater than 85%) | 5 (Level 5: the growth inhibition rate is greater than 85%) |
| C[N+](C)(C)CCO.Nc1c(Cl)c(F)nc(O[C@@H](C(=O)[O-])c2ccccc2)c1Cl [Compound 2-6] | 5 (Level 5: the growth inhibition rate is greater than 85%) | 5 (Level 5: the growth inhibition rate is greater than 85%) | 5 (Level 5: the growth inhibition rate is greater than 85%) |
| NCc1ccccc1 [Compound 2-9, benzylamine] | 5 (Level 5: the growth inhibition rate is greater than 85%) | 5 (Level 5: the growth inhibition rate is greater than 85%) | 5 (Level 5: the growth inhibition rate is greater than 85%) |
| CCOC(=O)C(Oc1nc(F)c(Cl)c(N)c1Cl)C1CC1 (stereo not drawn) [Compound 2-383] | 5 (Level 5: the growth inhibition rate is greater than 85%) | 5 (Level 5: the growth inhibition rate is greater than 85%) | 5 (Level 5: the growth inhibition rate is greater than 85%) |
| NCCNCCNCCN [Compound 2-18, triethylenetetramine] | 5 (Level 5: the growth inhibition rate is greater than 85%) | 5 (Level 5: the growth inhibition rate is greater than 85%) | 5 (Level 5: the growth inhibition rate is greater than 85%) |
| COC(=O)C(Oc1nc(F)c(Cl)c(N)c1Cl)C(F)F (stereo not drawn) [Compound 2-44] | 5 (Level 5: the growth inhibition rate is greater than 85%) | 5 (Level 5: the growth inhibition rate is greater than 85%) | 5 (Level 5: the growth inhibition rate is greater than 85%) |
